US7230029B2, “Fatty acid analogues for the treatment of proliferative skin disorders” (Thia Medica AS, priority 2000, dated 2007)

Experiments:
Inv [1] = assay: Inv mRNA expression in NHK (RT-PCR); format: cell-based, human; conditions: NHK treated over a period of three days
Experimental: (§1) Normal adult human epidermal keratinocytes were isolated from human skin obtained after plastic surgery. First passage keratinocytes were grown in serum-free KGM (GIBCO BRL/Life Technologies, Inc.) and replated in 75 cm^2 culture flask or in 96-well microtiterplates preheated at 37° C. at a density of 3500 cells/well. Cells were incubated in a humidified atmosphere of 5% CO2 at 37° C. When cells reached 40% confluence they were treated with growth medium containing selective PPAR ligands (either alone or in combinations as indicated), tetradecylthioacetic acid (TTA) or 1,2 mM Ca^2+. Wy14643 was obtained from Calbiochem, BRL49653 was kindly provided by J. Fleckner, Novo Nordisk), L165041 was kindly provided by D. E. Moller (Merck Research Laboratories, Rahway, N.J.). TTA was manufactured in accordance with example 1. Medium was changed every day. For differentiation, keratinocytes at 40% confluence (day 0) were treated with 1,2 mM CaCl2. Medium was changed every other day. HaCaT cells were obtained from L. Aarenstrup (Danish Cancer Society, Denmark). […]
(§2) To evaluate how TTA and the various PPAR activators affected expression of a known PPAR responsive gene and differentiation of keratinocytes, we first measured the mRNA levels of CD36/FAT and the two differentiation markers, Inv and Tg-1 in NHK treated with PPAR selective activators and TTA over a period of three days (FIG. 1a).

CD36/FAT = CD36/FAT mRNA expression in NHK treated with PPAR activators and TTA; format: cell-based, human; conditions: NHK treated over a period of three days
Experimental: (§3) Normal adult human epidermal keratinocytes were isolated from human skin obtained after plastic surgery. First passage keratinocytes were grown in serum-free KGM (GIBCO BRL/Life Technologies, Inc.) and replated in 75 cm^2 culture flask or in 96-well microtiterplates preheated at 37° C. at a density of 3500 cells/well. Cells were incubated in a humidified atmosphere of 5% CO2 at 37° C. When cells reached 40% confluence they were treated with growth medium containing selective PPAR ligands (either alone or in combinations as indicated), tetradecylthioacetic acid (TTA) or 1,2 mM Ca^2+. Wy14643 was obtained from Calbiochem, BRL49653 was kindly provided by J. Fleckner, Novo Nordisk), L165041 was kindly provided by D. E. Moller (Merck Research Laboratories, Rahway, N.J.). TTA was manufactured in accordance with example 1. Medium was changed every day. For differentiation, keratinocytes at 40% confluence (day 0) were treated with 1,2 mM CaCl2. Medium was changed every other day. HaCaT cells were obtained from L. Aarenstrup (Danish Cancer Society, Denmark). HaCaT cells were cultured in Dulbecco's modified Eagle's Medium (DMEM) with 10% fetal calf serum (FCS) and antibiotics (100 u/ml penicillin, 1 mg/ml streptomycin sulphate) in a humidified atmosphere of 5% CO2 at 37° C. Medium was changed every other day.
as §2

Inv [2] = assay: Inv expression by indirect immunofluorescence microscopy; format: cell-based, human
Text: (§4) In addition, expression of Inv and Tg-1 was examined by indirect immunofluorescence microscopy (FIG. 3).

[3] = system: transglutaminase type 1 (Tg-1); assay: Tg-1 expression by ELISA; format: cell-based, human; conditions: normalized to cell number
Experimental: as §1, with “day.” for “day. HaCaT cells were obtained from L. Aarenstrup (Danish Cancer Society, Denmark).”
Cells were subjected to two freeze-thaw cycles and transglutaminase type 1 (Tg-1) was determined by ELISA. […] The amount of transglutaminase was measured by quantifying the OPD reaction with an ELISA-reader at 490 nm and subtracting background at 650 nm. […]
(§5) Differentiation of keratinocytes is correlated with an increase in cell size. […] In parallel the expression of Tg-1 was monitored using an ELISA-based assay (FIG. 3b).

Tg-1 = Tg-1 expression by indirect immunofluorescence microscopy; format: cell-based, human
Text: as §4

NHK cells = assay: Viability/proliferation by modified MTT assay; format: cell-based, human
Experimental: as §1, with “day.” for “day. HaCaT cells were obtained from L. Aarenstrup (Danish Cancer Society, Denmark).”
Viability/proliferation was measured by a modification of the MTT assay introduced by Mosmann T (J Immunol Methods 65:55–63, 1983). […] The amount of formazan was quantified in an ELISA-reader at 540 nm. […]
as §5

human keratinocytes = assay: Keratinocyte differentiation marker gene expression (summary statements); format: cell-based
Experimental: In the present study we have in detail analyzed the expression of the PPARs during ex vivo differentiation of human keratinocytes, in isolated basal and suprabasal cells, and in sections of human skin. […] All three PPAR subtype selective ligands either alone or in combination only modestly effected keratinocyte proliferation.
as §1

Inv [4] = assay: Inv protein expression in NHK by Western blotting; format: cell-based, human
Experimental: as §3

Tg-1 expression [3] | SMILES | Inv mRNA expression (Inv [1]) | expression of CD36/FAT mRNA (CD36/FAT) | Inv expression (Inv [2]) | Tg-1 expression (Tg-1) | inhibition of NHK cell proliferation (NHK cells) | keratinocyte differentiation marker gene expression (human keratinocytes) | Inv protein expression (Inv [4])
 | Cc1cccc(Nc2cc(Cl)nc(SCC(=O)O)n2)c1C [Wy14643] | modest induction of Inv mRNA expression | induced expression of CD36/FAT |  |  |  |  | 
significantly induced Tg-1 expression | [Ca+2].[Cl-].[Cl-] [CaCl2] |  | did not induce expression of CD36/FAT | comparable levels of expression | comparable levels of expression | only marginal |  | 
 | CCCc1c(OCCCOc2ccc(OCC(=O)O)cc2)ccc(C(C)=O)c1O [L165041] | dose-dependent induction of Inv mRNA expression | induced a significant dose-dependent expression of CD36 | in a dose-dependent manner induced Inv expression |  |  | induced in a dose-dependent manner expression of involucrin | dose-dependent induction of Inv protein
